According to ChEMBL document CHEMBL5042496, “An unanticipated discovery towards novel naphthalimide corbelled aminothiazoximes as potential anti-MRSA agents and allosteric modulators for PBP2a” (Eur J Med Chem, 2022):
≈ marks a conversion by molar mass, not a printed value.

Assays:
Staphylococcus aureus [1] = experiment: Antibacterial activity against Staphylococcus aureus assessed as bacterial growth inhibition measured after 24 hrs by two fold serial dilution technique; assay type: functional
Staphylococcus aureus [2] = experiment: Antibacterial activity against Staphylococcus aureus ATCC 29213 assessed as bacterial growth inhibition measured after 24 hrs by two fold serial dilution technique; assay type: functional
Klebsiella pneumoniae = experiment: Antibacterial activity against Klebsiella pneumoniae assessed as bacterial growth inhibition measured after 24 hrs by two fold serial dilution technique; assay type: functional
Enterococcus faecium = experiment: Antibacterial activity against Enterococcus faecium assessed as bacterial growth inhibition measured after 24 hrs by two fold serial dilution technique; assay type: functional
Pseudomonas aeruginosa [3] = experiment: Antibacterial activity against Pseudomonas aeruginosa assessed as bacterial growth inhibition measured after 24 hrs by two fold serial dilution technique; assay type: functional
Acinetobacter baumannii = experiment: Antibacterial activity against Acinetobacter baumannii assessed as bacterial growth inhibition measured after 24 hrs by two fold serial dilution technique; assay type: functional
[4] = Hemolytic activity in human RBC assessed as hemolysis incubated for 1 hr; assay type: toxicity, cell-based, Erythrocyte; details: red blood cells
Staphylococcus aureus [5] = experiment: Antibacterial activity against Staphylococcus aureus ATCC 25923 assessed as bacterial growth inhibition measured after 24 hrs by two fold serial dilution technique; assay type: functional
Staphylococcus aureus [6] = experiment: Antibacterial activity against methicillin-resistant Staphylococcus aureus assessed as bacterial growth inhibition measured after 24 hrs by two fold serial dilution technique; assay type: functional
Escherichia coli [7] = experiment: Antibacterial activity against Escherichia coli ATCC 25922 assessed as bacterial growth inhibition measured after 24 hrs by two fold serial dilution technique; assay type: functional
Escherichia coli [8] = experiment: Antibacterial activity against Escherichia coli assessed as bacterial growth inhibition measured after 24 hrs by two fold serial dilution technique; assay type: functional
Pseudomonas aeruginosa [9] = experiment: Antibacterial activity against Pseudomonas aeruginosa ATCC 27853 assessed as bacterial growth inhibition measured after 24 hrs by two fold serial dilution technique; assay type: functional

SMILES: CO/N=C(\C(=O)N1CCN(c2ccc3c4c(cccc24)C(=O)N(c2nc4ccccc4[nH]2)C3=O)CC1)c1csc(N)n1
- MIC (Staphylococcus aureus [1]): 128 µg/mL (≈ 220 µM)
- MIC (Staphylococcus aureus [2]): 128 µg/mL (≈ 220 µM)
- MIC (Klebsiella pneumoniae): 8 µg/mL (≈ 13.8 µM)
- MIC (Enterococcus faecium): 128 µg/mL (≈ 220 µM)
- MIC (Pseudomonas aeruginosa [3]): 16 µg/mL (≈ 27.6 µM)
- MIC (Acinetobacter baumannii): 128 µg/mL (≈ 220 µM)
- HC50 at 1 h [4]: 367 µg/mL
- MIC (Staphylococcus aureus [5]): 128 µg/mL (≈ 220 µM)
- MIC (Staphylococcus aureus [6]): 4 µg/mL (≈ 6.89 µM)
- MIC (Escherichia coli [7]): 16 µg/mL (≈ 27.6 µM)
- MIC (Escherichia coli [8]): 256 µg/mL (≈ 441 µM)
- MIC (Pseudomonas aeruginosa [9]): 32 µg/mL (≈ 55.1 µM)

SMILES: CO/N=C(\C(=O)N1CCN(c2ccc3c4c(cccc24)C(=O)N(c2nc4ccccc4s2)C3=O)CC1)c1csc(N)n1
- MIC (Staphylococcus aureus [1]): 128 µg/mL (≈ 214 µM)
- MIC (Staphylococcus aureus [2]): 128 µg/mL (≈ 214 µM)
- MIC (Klebsiella pneumoniae): 16 µg/mL (≈ 26.8 µM)
- MIC (Enterococcus faecium): 64 µg/mL (≈ 107 µM)
- MIC (Pseudomonas aeruginosa [3]): 64 µg/mL (≈ 107 µM)
- MIC (Acinetobacter baumannii): 128 µg/mL (≈ 214 µM)
- HC50 at 1 h [4]: 334 µg/mL
- MIC (Staphylococcus aureus [5]): 128 µg/mL (≈ 214 µM)
- MIC (Staphylococcus aureus [6]): 16 µg/mL (≈ 26.8 µM)
- MIC (Escherichia coli [7]): 16 µg/mL (≈ 26.8 µM)
- MIC (Escherichia coli [8]): 64 µg/mL (≈ 107 µM)
- MIC (Pseudomonas aeruginosa [9]): 32 µg/mL (≈ 53.5 µM)

SMILES: CN(C)[C@@H]1C(O)=C(C(N)=O)C(=O)[C@@]2(O)C(O)=C3C(=O)c4c(O)cccc4[C@@](C)(O)[C@H]3C[C@@H]12 [TETRACYCLINE]
- MIC (Staphylococcus aureus [1]): 1 µg/mL (≈ 2.25 µM)
- MIC (Staphylococcus aureus [2]): 4 µg/mL (≈ 9 µM)
- MIC (Klebsiella pneumoniae): 16 µg/mL (≈ 36 µM)
- MIC (Enterococcus faecium): 2 µg/mL (≈ 4.5 µM)
- MIC (Pseudomonas aeruginosa [3]): 0.25 µg/mL (≈ 0.563 µM)
- MIC (Acinetobacter baumannii): 0.25 µg/mL (≈ 0.563 µM)
- MIC (Staphylococcus aureus [5]): 4 µg/mL (≈ 9 µM)
- MIC (Staphylococcus aureus [6]): 1 µg/mL (≈ 2.25 µM)
- MIC (Escherichia coli [7]): 1 µg/mL (≈ 2.25 µM)
- MIC (Escherichia coli [8]): 0.25 µg/mL (≈ 0.563 µM)
- MIC (Pseudomonas aeruginosa [9]): 64 µg/mL (≈ 144 µM)

SMILES: CO/N=C(\C(=O)N1CCN(c2ccc3c4c(cccc24)C(=O)N(O)C3=O)CC1)c1csc(N)n1
- MIC (Staphylococcus aureus [1]): 64 µg/mL (≈ 133 µM)
- MIC (Staphylococcus aureus [2]): 32 µg/mL (≈ 66.6 µM)
- MIC (Klebsiella pneumoniae): 16 µg/mL (≈ 33.3 µM)
- MIC (Enterococcus faecium): 8 µg/mL (≈ 16.6 µM)
- MIC (Pseudomonas aeruginosa [3]): 64 µg/mL (≈ 133 µM)
- MIC (Acinetobacter baumannii): 2 µg/mL (≈ 4.16 µM)
- HC50 at 1 h [4]: 277 µg/mL
- MIC (Staphylococcus aureus [5]): 32 µg/mL (≈ 66.6 µM)
- MIC (Staphylococcus aureus [6]): 16 µg/mL (≈ 33.3 µM)
- MIC (Escherichia coli [7]): 64 µg/mL (≈ 133 µM)
- MIC (Escherichia coli [8]): 32 µg/mL (≈ 66.6 µM)
- MIC (Pseudomonas aeruginosa [9]): 64 µg/mL (≈ 133 µM)

SMILES: CCCCN1C(=O)c2cccc3c(N4CCN(C(=O)/C(=N\OC)c5csc(N)n5)CC4)ccc(c23)C1=O
- MIC (Staphylococcus aureus [1]): 64 µg/mL (≈ 123 µM)
- MIC (Staphylococcus aureus [2]): 64 µg/mL (≈ 123 µM)
- MIC (Klebsiella pneumoniae): 64 µg/mL (≈ 123 µM)
- MIC (Enterococcus faecium): 16 µg/mL (≈ 30.7 µM)
- MIC (Pseudomonas aeruginosa [3]): 64 µg/mL (≈ 123 µM)
- MIC (Acinetobacter baumannii): 8 µg/mL (≈ 15.4 µM)
- HC50 at 1 h [4]: 563 µg/mL
- MIC (Staphylococcus aureus [5]): 128 µg/mL (≈ 246 µM)
- MIC (Staphylococcus aureus [6]): 8 µg/mL (≈ 15.4 µM)
- MIC (Escherichia coli [7]): 64 µg/mL (≈ 123 µM)
- MIC (Escherichia coli [8]): 32 µg/mL (≈ 61.5 µM)
- MIC (Pseudomonas aeruginosa [9]): 64 µg/mL (≈ 123 µM)

SMILES: CCCCCCCCCCCCN1C(=O)c2cccc3c(N4CCN(C(=O)/C(=N\OC)c5csc(N)n5)CC4)ccc(c23)C1=O
- MIC (Staphylococcus aureus [1]): 16 µg/mL (≈ 25.3 µM)
- MIC (Staphylococcus aureus [2]): 128 µg/mL (≈ 202 µM)
- MIC (Klebsiella pneumoniae): 64 µg/mL (≈ 101 µM)
- MIC (Enterococcus faecium): 32 µg/mL (≈ 50.6 µM)
- MIC (Pseudomonas aeruginosa [3]): 64 µg/mL (≈ 101 µM)
- MIC (Acinetobacter baumannii): 16 µg/mL (≈ 25.3 µM)
- HC50 at 1 h [4]: 359 µg/mL
- MIC (Staphylococcus aureus [5]): 128 µg/mL (≈ 202 µM)
- MIC (Staphylococcus aureus [6]): 64 µg/mL (≈ 101 µM)
- MIC (Escherichia coli [7]): 128 µg/mL (≈ 202 µM)
- MIC (Escherichia coli [8]): 64 µg/mL (≈ 101 µM)
- MIC (Pseudomonas aeruginosa [9]): 64 µg/mL (≈ 101 µM)

SMILES: CO/N=C(\C(=O)N1CCN(c2ccc3c4c(cccc24)C(=O)N(NC(C)=O)C3=O)CC1)c1csc(N)n1
- MIC (Staphylococcus aureus [1]): 64 µg/mL (≈ 123 µM)
- MIC (Staphylococcus aureus [2]): 32 µg/mL (≈ 61.4 µM)
- MIC (Klebsiella pneumoniae): 32 µg/mL (≈ 61.4 µM)
- MIC (Enterococcus faecium): 32 µg/mL (≈ 61.4 µM)
- MIC (Pseudomonas aeruginosa [3]): 32 µg/mL (≈ 61.4 µM)
- MIC (Acinetobacter baumannii): 16 µg/mL (≈ 30.7 µM)
- HC50 at 1 h [4]: 180 µg/mL
- MIC (Staphylococcus aureus [5]): 64 µg/mL (≈ 123 µM)
- MIC (Staphylococcus aureus [6]): 4 µg/mL (≈ 7.67 µM)
- MIC (Escherichia coli [7]): 64 µg/mL (≈ 123 µM)
- MIC (Escherichia coli [8]): 4 µg/mL (≈ 7.67 µM)
- MIC (Pseudomonas aeruginosa [9]): 32 µg/mL (≈ 61.4 µM)

SMILES: CO/N=C(\C(=O)N1CCN(c2ccc3c4c(cccc24)C(=O)N(C)C3=O)CC1)c1csc(N)n1
- MIC (Staphylococcus aureus [1]): 16 µg/mL (≈ 33.4 µM)
- MIC (Staphylococcus aureus [2]): 16 µg/mL (≈ 33.4 µM)
- MIC (Klebsiella pneumoniae): 8 µg/mL (≈ 16.7 µM)
- MIC (Enterococcus faecium): 8 µg/mL (≈ 16.7 µM)
- MIC (Pseudomonas aeruginosa [3]): 64 µg/mL (≈ 134 µM)
- MIC (Acinetobacter baumannii): 8 µg/mL (≈ 16.7 µM)
- HC50 at 1 h [4]: 343 µg/mL
- MIC (Staphylococcus aureus [5]): 64 µg/mL (≈ 134 µM)
- MIC (Staphylococcus aureus [6]): 4 µg/mL (≈ 8.36 µM)
- MIC (Escherichia coli [7]): 64 µg/mL (≈ 134 µM)
- MIC (Escherichia coli [8]): 32 µg/mL (≈ 66.9 µM)
- MIC (Pseudomonas aeruginosa [9]): 32 µg/mL (≈ 66.9 µM)

SMILES: CO/N=C(\C(=O)N1CCN(c2ccc3c4c(cccc24)C(=O)N(CC(=O)O)C3=O)CC1)c1csc(N)n1
- MIC (Staphylococcus aureus [1]): 256 µg/mL (≈ 490 µM)
- MIC (Staphylococcus aureus [2]): 64 µg/mL (≈ 122 µM)
- MIC (Klebsiella pneumoniae): 128 µg/mL (≈ 245 µM)
- MIC (Enterococcus faecium): 64 µg/mL (≈ 122 µM)
- MIC (Pseudomonas aeruginosa [3]): 16 µg/mL (≈ 30.6 µM)
- MIC (Acinetobacter baumannii): 32 µg/mL (≈ 61.2 µM)
- HC50 at 1 h [4]: 1000 µg/mL
- MIC (Staphylococcus aureus [5]): 128 µg/mL (≈ 245 µM)
- MIC (Staphylococcus aureus [6]): 64 µg/mL (≈ 122 µM)
- MIC (Escherichia coli [7]): 64 µg/mL (≈ 122 µM)
- MIC (Escherichia coli [8]): 32 µg/mL (≈ 61.2 µM)
- MIC (Pseudomonas aeruginosa [9]): 64 µg/mL (≈ 122 µM)

SMILES: CO/N=C(\C(=O)N1CCN(c2ccc3c4c(cccc24)C(=O)N(CCO)C3=O)CC1)c1csc(N)n1
- MIC (Staphylococcus aureus [1]): 64 µg/mL (≈ 126 µM)
- MIC (Staphylococcus aureus [2]): 32 µg/mL (≈ 62.9 µM)
- MIC (Klebsiella pneumoniae): 64 µg/mL (≈ 126 µM)
- MIC (Enterococcus faecium): 16 µg/mL (≈ 31.5 µM)
- MIC (Pseudomonas aeruginosa [3]): 16 µg/mL (≈ 31.5 µM)
- MIC (Acinetobacter baumannii): 16 µg/mL (≈ 31.5 µM)
- HC50 at 1 h [4]: 214 µg/mL
- MIC (Staphylococcus aureus [5]): 16 µg/mL (≈ 31.5 µM)
- MIC (Staphylococcus aureus [6]): 2 µg/mL (≈ 3.93 µM)
- MIC (Escherichia coli [7]): 64 µg/mL (≈ 126 µM)
- MIC (Escherichia coli [8]): 16 µg/mL (≈ 31.5 µM)
- MIC (Pseudomonas aeruginosa [9]): 64 µg/mL (≈ 126 µM)

SMILES: CO/N=C(\C(=O)N1CCN(c2ccc3c4c(cccc24)C(=O)N(C2CCCCC2)C3=O)CC1)c1csc(N)n1
- MIC (Staphylococcus aureus [1]): 64 µg/mL (≈ 117 µM)
- MIC (Staphylococcus aureus [2]): 64 µg/mL (≈ 117 µM)
- MIC (Klebsiella pneumoniae): 16 µg/mL (≈ 29.3 µM)
- MIC (Enterococcus faecium): 16 µg/mL (≈ 29.3 µM)
- MIC (Pseudomonas aeruginosa [3]): 128 µg/mL (≈ 234 µM)
- MIC (Acinetobacter baumannii): 8 µg/mL (≈ 14.6 µM)
- HC50 at 1 h [4]: 257 µg/mL
- MIC (Staphylococcus aureus [5]): 128 µg/mL (≈ 234 µM)
- MIC (Staphylococcus aureus [6]): 16 µg/mL (≈ 29.3 µM)
- MIC (Escherichia coli [7]): 64 µg/mL (≈ 117 µM)
- MIC (Escherichia coli [8]): 64 µg/mL (≈ 117 µM)
- MIC (Pseudomonas aeruginosa [9]): 64 µg/mL (≈ 117 µM)

SMILES: O=C(O)c1cn(C2CC2)c2cc(N3CCNCC3)c(F)cc2c1=O [CIPROFLOXACIN]
- MIC (Staphylococcus aureus [1]): 2 µg/mL (≈ 6.04 µM)
- MIC (Staphylococcus aureus [2]): 8 µg/mL (≈ 24.1 µM)
- MIC (Klebsiella pneumoniae): 2 µg/mL (≈ 6.04 µM)
- MIC (Enterococcus faecium): 2 µg/mL (≈ 6.04 µM)
- MIC (Acinetobacter baumannii): 2 µg/mL (≈ 6.04 µM)
- MIC (Staphylococcus aureus [5]): 0.5 µg/mL (≈ 1.51 µM)
- MIC (Staphylococcus aureus [6]): 4 µg/mL (≈ 12.1 µM)
